Test results taken from ChEMBL document CHEMBL1201862, “PubChem BioAssay data set” (2004).
The source made the active and inactive calls.

Key:
[1] = inhibitors of intracellular T. cruzi replication, confirmation, NIH3T3 host cells, beta-gal luminescence (AID 2044); format: functional, cell-based;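 note: intracellular parasites grown in NIH/3T3 mouse fibroblasts as host cells; luminescent beta-galactosidase reporter signal from transgenic T. cruzi replicating inside host cells; inhibitors lower the luminescence signal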
[2] = biological target: T1, Serine/threonine-protein phosphatase (Candida dubliniensis (strain CD36 / CBS 7987 / NCPF 3949 / NRRLY-17841) (Yeast), UniProt B9W6M3); experiment: calcineurin pathway inhibitors in yeast reporter, dose response, S. cerevisiae, CDRE-lacZ, luminescence, secondary (AID 2388); format: functional, cell-based;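 note: yeast reporter cells carrying a calcineurin-responsive lacZ construct stimulated with calcium chloride; luminescent beta-galactosidase reporter signal in whole cells rather than isolated phosphatase activity; potency for inhibition where a drop in reporter signal means calcineurin blockade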
T1 sequence (B9W6M3 whole entry): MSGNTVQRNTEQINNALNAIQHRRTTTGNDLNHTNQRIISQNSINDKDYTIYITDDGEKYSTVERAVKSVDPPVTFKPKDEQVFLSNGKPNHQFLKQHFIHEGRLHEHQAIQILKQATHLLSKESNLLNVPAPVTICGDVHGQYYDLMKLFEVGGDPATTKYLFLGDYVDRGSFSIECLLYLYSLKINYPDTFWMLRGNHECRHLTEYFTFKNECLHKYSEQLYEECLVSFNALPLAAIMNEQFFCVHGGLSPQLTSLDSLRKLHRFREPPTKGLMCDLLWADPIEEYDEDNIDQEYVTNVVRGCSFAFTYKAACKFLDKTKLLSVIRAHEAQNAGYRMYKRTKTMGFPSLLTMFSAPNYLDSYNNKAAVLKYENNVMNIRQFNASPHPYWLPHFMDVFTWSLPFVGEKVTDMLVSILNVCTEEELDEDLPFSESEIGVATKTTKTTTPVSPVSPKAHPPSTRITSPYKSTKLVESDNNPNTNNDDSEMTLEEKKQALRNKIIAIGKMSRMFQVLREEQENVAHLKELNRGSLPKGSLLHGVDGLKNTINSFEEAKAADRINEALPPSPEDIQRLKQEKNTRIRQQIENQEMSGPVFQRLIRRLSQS

HEK293 = experiment: SAR Analysis of small molecule inhibitors of T-cell specific antigen receptor-induced NF-kB activation in a HEK-293T cell line using a luminescence assay. [Related pubchem assays (depositor defined):AID435003, AID435012, AID489026]; format: functional, cell-based; conditions: Homo sapiens
[3] = THP-1 cell cytotoxicity, dose response, cytotoxicity control for non-replicating M. tuberculosis project (AID 489025); format: functional
cells = format: functional
Vero = Vero cell cytotoxicity, cytotoxicity control for flavivirus capping enzyme inhibitors (AID 588742); format: functional; conditions: Chlorocebus sabaeus
Fatty acid synthase = Fatty acid synthase (Homo sapiens, UniProt P49327); experiment: FAS thioesterase domain inhibitors, dose response, biochemical, endpoint fluorescence intensity, uHTS hits (AID 624327); format: functional;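 note: fluorescence from hydrolysis of an O-methyl fluorescein acyl ester substrate by the enzyme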
Chain of Fatty acid synthase (P49327 whole entry, the tested form may be a part): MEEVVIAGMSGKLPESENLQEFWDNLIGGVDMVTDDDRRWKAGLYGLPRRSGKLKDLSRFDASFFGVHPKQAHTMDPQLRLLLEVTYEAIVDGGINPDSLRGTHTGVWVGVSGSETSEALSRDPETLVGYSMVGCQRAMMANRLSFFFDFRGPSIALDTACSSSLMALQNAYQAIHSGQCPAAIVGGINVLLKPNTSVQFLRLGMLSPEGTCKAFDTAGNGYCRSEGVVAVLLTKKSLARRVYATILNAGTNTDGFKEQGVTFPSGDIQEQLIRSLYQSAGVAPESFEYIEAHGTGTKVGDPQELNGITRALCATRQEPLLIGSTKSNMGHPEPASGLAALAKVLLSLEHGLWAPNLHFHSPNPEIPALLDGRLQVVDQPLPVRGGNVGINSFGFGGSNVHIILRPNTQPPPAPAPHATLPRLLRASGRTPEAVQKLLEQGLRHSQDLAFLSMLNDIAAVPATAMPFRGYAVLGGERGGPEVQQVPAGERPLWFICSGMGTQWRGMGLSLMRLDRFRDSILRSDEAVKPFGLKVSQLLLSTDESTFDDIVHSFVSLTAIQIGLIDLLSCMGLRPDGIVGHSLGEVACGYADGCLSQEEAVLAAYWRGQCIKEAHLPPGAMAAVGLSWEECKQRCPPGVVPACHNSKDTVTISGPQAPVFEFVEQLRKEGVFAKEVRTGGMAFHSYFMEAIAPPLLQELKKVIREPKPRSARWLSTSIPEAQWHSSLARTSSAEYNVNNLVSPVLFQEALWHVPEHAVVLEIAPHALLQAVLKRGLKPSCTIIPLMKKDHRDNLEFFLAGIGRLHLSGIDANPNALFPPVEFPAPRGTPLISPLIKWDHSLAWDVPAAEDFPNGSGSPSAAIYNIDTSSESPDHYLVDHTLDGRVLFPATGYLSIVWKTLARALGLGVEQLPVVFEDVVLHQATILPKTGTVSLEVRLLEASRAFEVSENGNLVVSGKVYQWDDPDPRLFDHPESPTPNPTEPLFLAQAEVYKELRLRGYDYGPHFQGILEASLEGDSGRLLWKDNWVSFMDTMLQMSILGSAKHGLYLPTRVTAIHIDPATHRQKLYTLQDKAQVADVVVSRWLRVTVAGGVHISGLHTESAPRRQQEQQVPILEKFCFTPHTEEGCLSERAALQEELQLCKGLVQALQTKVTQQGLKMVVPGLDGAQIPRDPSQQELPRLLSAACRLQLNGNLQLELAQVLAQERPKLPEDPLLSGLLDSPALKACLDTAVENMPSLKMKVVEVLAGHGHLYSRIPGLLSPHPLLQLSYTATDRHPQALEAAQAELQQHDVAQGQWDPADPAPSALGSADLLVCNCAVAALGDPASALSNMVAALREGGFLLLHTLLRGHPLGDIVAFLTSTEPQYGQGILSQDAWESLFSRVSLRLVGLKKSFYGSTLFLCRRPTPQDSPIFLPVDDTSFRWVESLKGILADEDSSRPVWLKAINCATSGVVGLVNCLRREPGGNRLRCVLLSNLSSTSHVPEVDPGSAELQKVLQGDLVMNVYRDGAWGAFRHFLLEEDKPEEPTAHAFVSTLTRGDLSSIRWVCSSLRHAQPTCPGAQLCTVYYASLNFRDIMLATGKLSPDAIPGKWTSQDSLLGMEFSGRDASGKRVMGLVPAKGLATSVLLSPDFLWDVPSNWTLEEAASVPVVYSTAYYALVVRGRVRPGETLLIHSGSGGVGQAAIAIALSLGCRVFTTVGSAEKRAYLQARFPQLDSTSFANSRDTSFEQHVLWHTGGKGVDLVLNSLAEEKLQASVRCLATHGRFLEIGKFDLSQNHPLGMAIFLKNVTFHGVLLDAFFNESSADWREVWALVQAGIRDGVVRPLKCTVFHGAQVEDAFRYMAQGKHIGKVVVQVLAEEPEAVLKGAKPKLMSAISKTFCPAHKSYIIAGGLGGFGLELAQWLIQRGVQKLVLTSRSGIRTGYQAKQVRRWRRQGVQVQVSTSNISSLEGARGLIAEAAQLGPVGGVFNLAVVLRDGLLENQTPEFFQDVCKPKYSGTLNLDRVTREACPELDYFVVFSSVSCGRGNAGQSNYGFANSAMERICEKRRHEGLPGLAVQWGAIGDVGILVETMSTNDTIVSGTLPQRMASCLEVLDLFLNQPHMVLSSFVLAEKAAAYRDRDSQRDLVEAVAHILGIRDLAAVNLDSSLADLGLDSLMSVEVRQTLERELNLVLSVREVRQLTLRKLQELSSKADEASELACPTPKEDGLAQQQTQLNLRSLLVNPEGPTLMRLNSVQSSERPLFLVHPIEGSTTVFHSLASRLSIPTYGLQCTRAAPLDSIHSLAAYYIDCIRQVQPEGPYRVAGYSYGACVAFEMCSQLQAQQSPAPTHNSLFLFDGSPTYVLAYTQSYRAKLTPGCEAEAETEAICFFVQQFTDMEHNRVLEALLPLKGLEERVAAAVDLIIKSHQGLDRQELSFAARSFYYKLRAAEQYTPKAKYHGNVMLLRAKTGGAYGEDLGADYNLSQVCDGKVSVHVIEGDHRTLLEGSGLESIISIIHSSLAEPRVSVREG

Caspase-8 = Caspase-8 (Homo sapiens, UniProt Q14790); experiment: caspase-8 inhibition counter-screen, dose response, selectivity assay for caspase-6 inhibitor project, biochemical, Z-IETD-R110 fluorescence, cherry-picked samples (AID 743294)
Chain of Caspase-8 (Q14790 217-374 limits assumed): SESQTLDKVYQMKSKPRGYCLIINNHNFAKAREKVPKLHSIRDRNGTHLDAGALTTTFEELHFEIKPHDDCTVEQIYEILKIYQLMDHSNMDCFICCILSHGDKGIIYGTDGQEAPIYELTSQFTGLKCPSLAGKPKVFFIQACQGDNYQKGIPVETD
Chain of Caspase-8 (Q14790 385-479 limits assumed): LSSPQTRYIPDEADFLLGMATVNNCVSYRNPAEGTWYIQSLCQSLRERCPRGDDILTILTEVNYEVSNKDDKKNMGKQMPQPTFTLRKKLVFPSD

[4] = biological target: Heat shock protein HSP 90-alpha (Homo sapiens, UniProt P07900); format: functional, organism-based
[5] = inhibitors of firefly luciferase expression or activity, dose response, H4 neuroglioma cells, luminescence (AID 1990); format: functional, cell-based
[6] = Luminescence Cell-Based Dose Response HTS to Identify Inhibitors of 5'UTR Stem-Loop Driven Prion Protein mRNA Translation in H4 Neuroglioblastoma Cells. [Related pubchem assays: 1827 (Project Summary), 1813 (Primary HTS)]; format: functional
BJ = experiment: cytotoxicity toward BJ-TERT-LT-ST fibroblasts, dose response, cell-based, RAS-independent, luminescence (AID 1935); format: functional; conditions: Homo sapiens;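 note: BJ fibroblasts immortalized with TERT plus LT and ST oncogenes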
Cysteine protease ATG4B = biological target: T2, Cysteine protease ATG4B (Homo sapiens, UniProt Q9Y4P1); format: functional;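 note: Fluorescence-based dose-response confirmation assay measuring inhibition of ATG4B activity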
T2 sequence (Q9Y4P1 whole entry): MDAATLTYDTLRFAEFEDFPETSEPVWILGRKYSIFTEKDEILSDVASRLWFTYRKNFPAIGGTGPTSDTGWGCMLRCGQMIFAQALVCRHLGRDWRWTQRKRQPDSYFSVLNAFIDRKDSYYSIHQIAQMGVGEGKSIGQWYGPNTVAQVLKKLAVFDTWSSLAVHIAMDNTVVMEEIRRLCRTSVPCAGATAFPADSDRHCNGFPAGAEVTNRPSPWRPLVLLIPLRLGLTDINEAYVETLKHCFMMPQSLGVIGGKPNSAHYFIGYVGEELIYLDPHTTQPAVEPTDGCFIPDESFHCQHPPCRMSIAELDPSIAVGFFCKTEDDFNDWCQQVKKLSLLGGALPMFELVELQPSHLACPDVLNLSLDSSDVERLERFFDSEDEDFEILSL

Phospholipase A2 = Phospholipase A2 (Homo sapiens, UniProt P04054); format: functional;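 note: confirmatory dose-response counterscreen on phospholipase A2, testing hits that came from an ultra-high-throughput screen for ATG4B inhibitors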
Chain of Phospholipase A2 (P04054 whole entry): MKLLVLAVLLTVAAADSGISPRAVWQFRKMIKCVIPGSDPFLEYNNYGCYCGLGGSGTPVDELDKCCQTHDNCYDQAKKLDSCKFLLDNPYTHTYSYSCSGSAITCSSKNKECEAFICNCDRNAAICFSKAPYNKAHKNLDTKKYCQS

[7] = HEK293T cytotoxicity, dose response, cytotoxicity control for miR-122 modulator project, cell-based, activator set, cherry-pick (AID 720690); format: functional;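 note: HEK293T human cells scored for general mammalian cytotoxicity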
[8] = biological target: 1-phosphatidylinositol 4,5-bisphosphate phosphodiesterase beta-3 (Homo sapiens, UniProt Q01970); experiment: Fluorescence-based biochemical high throughput dose response assay to identify inhibitors of phospholipase C isozymes (PLC-B3).
Chain of 1-phosphatidylinositol 4,5-bisphosphate phosphodiesterase beta-3 (Q01970 whole entry): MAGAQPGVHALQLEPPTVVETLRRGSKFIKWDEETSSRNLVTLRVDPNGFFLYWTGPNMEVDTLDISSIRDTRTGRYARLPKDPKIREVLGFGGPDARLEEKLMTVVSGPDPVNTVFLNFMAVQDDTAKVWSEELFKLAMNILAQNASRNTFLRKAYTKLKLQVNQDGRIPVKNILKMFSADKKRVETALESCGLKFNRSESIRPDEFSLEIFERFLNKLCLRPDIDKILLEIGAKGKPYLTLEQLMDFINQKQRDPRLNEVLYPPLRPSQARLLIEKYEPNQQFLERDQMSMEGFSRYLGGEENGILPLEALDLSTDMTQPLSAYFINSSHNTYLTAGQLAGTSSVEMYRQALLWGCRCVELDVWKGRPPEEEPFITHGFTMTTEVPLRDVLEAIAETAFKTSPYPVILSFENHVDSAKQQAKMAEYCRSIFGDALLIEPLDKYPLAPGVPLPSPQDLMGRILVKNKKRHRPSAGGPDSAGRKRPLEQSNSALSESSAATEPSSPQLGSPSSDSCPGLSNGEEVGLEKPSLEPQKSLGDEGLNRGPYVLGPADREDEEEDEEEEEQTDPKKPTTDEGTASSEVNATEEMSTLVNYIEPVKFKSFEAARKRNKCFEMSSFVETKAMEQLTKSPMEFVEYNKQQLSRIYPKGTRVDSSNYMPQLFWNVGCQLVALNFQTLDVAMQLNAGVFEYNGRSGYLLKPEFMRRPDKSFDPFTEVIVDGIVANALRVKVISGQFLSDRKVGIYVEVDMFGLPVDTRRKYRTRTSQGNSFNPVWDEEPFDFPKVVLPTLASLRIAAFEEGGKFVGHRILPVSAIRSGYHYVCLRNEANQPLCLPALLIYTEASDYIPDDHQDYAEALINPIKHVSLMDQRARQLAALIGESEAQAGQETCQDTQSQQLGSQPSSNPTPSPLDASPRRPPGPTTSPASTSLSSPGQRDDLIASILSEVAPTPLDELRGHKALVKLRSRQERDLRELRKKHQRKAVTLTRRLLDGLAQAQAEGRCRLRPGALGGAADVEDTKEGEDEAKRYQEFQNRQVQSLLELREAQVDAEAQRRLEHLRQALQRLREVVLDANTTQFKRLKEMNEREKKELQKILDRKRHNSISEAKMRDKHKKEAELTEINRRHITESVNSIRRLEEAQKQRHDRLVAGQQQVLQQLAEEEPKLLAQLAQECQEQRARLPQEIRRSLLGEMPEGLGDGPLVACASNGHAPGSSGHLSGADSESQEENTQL

Caspase-3 = biological target: T3, Caspase-3 (Homo sapiens, UniProt P42574); format: functional;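 note: Dose-response selectivity test against caspase-3 for candidate inhibitors of sentrin-specific proteases (SENPs)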
T3 sequence (P42574 whole entry): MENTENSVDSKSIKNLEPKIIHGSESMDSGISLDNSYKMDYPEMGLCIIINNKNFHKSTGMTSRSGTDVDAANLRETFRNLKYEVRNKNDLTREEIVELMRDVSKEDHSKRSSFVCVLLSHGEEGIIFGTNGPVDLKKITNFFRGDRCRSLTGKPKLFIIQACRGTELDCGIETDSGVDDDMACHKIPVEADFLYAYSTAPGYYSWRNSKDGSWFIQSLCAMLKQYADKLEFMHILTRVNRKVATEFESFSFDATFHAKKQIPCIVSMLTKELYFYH

[9] = biological target: T4, Sentrin-specific protease 8 (Homo sapiens, UniProt Q96LD8); format: functional;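 note: luminescence read-out of SENP8 inhibition, dose-response confirmation following an ultra-high-throughput screen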
T4 sequence (Q96LD8 whole entry): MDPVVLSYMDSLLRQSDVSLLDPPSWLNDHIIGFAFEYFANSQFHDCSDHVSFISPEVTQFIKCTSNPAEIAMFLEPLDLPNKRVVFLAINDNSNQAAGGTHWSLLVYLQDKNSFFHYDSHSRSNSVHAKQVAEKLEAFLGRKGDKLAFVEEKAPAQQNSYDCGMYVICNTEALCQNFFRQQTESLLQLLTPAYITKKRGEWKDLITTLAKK

[10] = biological target: T5, Mitochondrial peptide methionine sulfoxide reductase (Bos taurus, UniProt P54149); format: functional;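 note: absorbance read-out, biochemical high-throughput dose-response screen for MsrA inhibitors, confirmatory; recombinant bovine MsrA coupled to E. coli TrxB with NADPH and selenocystamine; potency is for inhibitors of MsrA activity on DMSO substrate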
T5 sequence (P54149 whole entry): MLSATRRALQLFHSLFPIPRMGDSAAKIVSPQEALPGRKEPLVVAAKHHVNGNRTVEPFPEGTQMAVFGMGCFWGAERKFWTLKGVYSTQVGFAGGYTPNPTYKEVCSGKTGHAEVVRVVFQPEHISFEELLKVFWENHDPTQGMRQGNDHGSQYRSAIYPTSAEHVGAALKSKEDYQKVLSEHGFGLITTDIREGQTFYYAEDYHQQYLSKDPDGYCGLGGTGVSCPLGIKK

## CCCC(=O)NC(c1ccccc1OC)c1ccc2cccnc2c1O (stereo not given)
[1]
  EC50: 0.532 µM (active)
[2]
  EC50: > 180 µM (inactive)
HEK293
  IC50: 12.5 µM (active)

## COC(CNC(=O)c1ccc2c3c(onc13)-c1ccccc1C2=O)OC
[3]
  CC50: 7.86 µM (active)
cells
  IC50: 41.5 µM (active)
Vero
  CC50: 20.4 µM (active)

## COc1cc(-c2ccc(Nc3ccccc3C(=O)O)c(OC)c2)ccc1Nc1ccccc1C(=O)O
Fatty acid synthase
  IC50: 7.61 µM (active)
Caspase-8
  AC50: 48 µM (active)

## Cc1ccc2nc(/C(C#N)=C\c3ccc([N+](=O)[O-])o3)[nH]c2c1
[4]
  AC50: < 0.195 µM (active)

## Nc1ccc2c(c1)C(=O)C(=O)c1ccccc1-2
[5]
  EC50: > 120 µM (not active)
[6]
  EC50: 8.68 µM (inconclusive)
BJ
  EC50: 3.12 µM (inconclusive)
[3]
  CC50: 2.74 µM (active)
Cysteine protease ATG4B
  IC50: 1.56 µM (active)
cells
  IC50: 7.1 µM (active)
Phospholipase A2
  IC50: 48.8 µM (inactive)
[7]
  AC50: 6.54 µM (active)
[8]
  IC50: > 122 µM (inactive)

## O=C(O)c1ccc(NC2=C/C(=N/S(=O)(=O)c3ccccc3)c3ccccc3C2=O)cc1
Caspase-3
  IC50: 4.5 µM (active)
[9]
  IC50: 1.38 µM (active)
Cysteine protease ATG4B
  IC50: 10.1 µM (active)
Phospholipase A2
  IC50: 34.7 µM (inactive)
Vero
  CC50: 31.4 µM (active)
[10]
  IC50: 6.42 µM (active)
[8]
  IC50: > 122 µM (inactive)

## COC(=O)[C@@H]1[C@@H](C(=O)OC)C2(c3ccccc3-c3ccccc32)N(c2ccc(Cl)cc2)N1C#N
[1]
  EC50: 2.24 µM (active)
BJ
  EC50: 5.02 µM (active)

## COc1ccc(OC)c(Nc2cc3ccccc3c(O)n2)c1
Caspase-3
  IC50: 1.88 µM (active)
[9]
  IC50: 2.45 µM (active)
Caspase-8
  AC50: 6.14 µM (active)
